Measurements as given in patent publication US12357601B2, “Composition for inhibiting growth of bacterium having menaquinone synthesis pathway through futalosine or futalosine derivative” (NOSTER INC., priority 2017, dated 2025).

Assays:
[1] = system: Helicobacter pylori SS1 strain, TN2GF4 strain, TK1029 strain, RC-1 strain; assay: Proliferation inhibitory effect (in vitro) of low concentration fatty acid, shaking culture 24 hr, colony count; format: cell-based; conditions: fatty acid 20 μM, 24 hr; SS1, TN2GF4, TK1029, RC-1 strains; compared with linoleic acid
Procedure: Helicobacter pylori SS1 strain, TN2GF4 strain, TK1029 strain, RC-1 strain were each inoculated to a 6-well plate containing 2 mL of a liquid medium (BHI added with 5% FCS), and fatty acid (20 μM) and menaquinone (MK-4) 100 μg/mL were added. After shaking culture for 24 hr at temperature 37° C., microaerobic conditions (5% 02, 10% CO2, 85% N2), the culture medium was applied on a Helicobacter agar plate, cultured for 3 days and the resulting colonies were counted (FIG. 2-1 A: SS1 strain, FIG. 2-2 B: TN2GF4 strain, FIG. 2-3 C: TK1029 strain, FIG. 2-4 D: RC-1 strain. Item 1: control (menaquinone no addition), Item 2: control (menaquinone 100 μg/mL addition), Item 3: HYA 20 μM (menaquinone no addition), Item 4: HYA 20 μM (menaquinone 100 μg/mL addition), Item 5: linoleic acid 20 μM (menaquinone no addition), Item 6: linoleic acid 20 μM (menaquinone 100 μg/mL addition). *, P<0.0001 vs. Control (ordinary one-way ANOVA)).

CD19 and CD20 expression = assay: Gastric MALT lymphoma model: CD19, CD20 expression in gastric mucosa (real-time RT-PCR); format: in vivo, C57BL/6 female mouse; conditions: 200 μM in water; 6 months after infection with Helicobacter suis TKY strain; relative to GAPDH
Procedure: (§1) Helicobacter suis is suspected to be the cause of the onset of gastric MALT lymphoma. A 5-week-old C57BL/6 female mouse was orally infected only once with a stomach suspension of Helicobacter suis TKY strain-infected mouse and dissected 6 months after the infection, and the number of bacteria in the gastric mucosa was counted according to the method described in Example 5. Water added with HYA (200 μM) was given to the mouse from one week before the infection.
CD19 and CD20 are cell surface markers for B-cell lymphoma. Using real-time reverse transcription PCR (real-time RT-PCR), the expression levels of CD19 and CD20 were measured. Using NucleoSpin (registered trade mark) RNA Kit (Takara Bio Inc.), RNA was prepared from mouse gastric mucosa. Using PrimeScript™ RT Reagent Kit (Takara Bio Inc.), cDNA was prepared from RNA. For real-time RT-PCR, KAPA SYBR Fast ROX Low qPCR kit (KAPA BIOSYSTEMS Inc.) and QuantStudio7 Flex Real-time PCR System (Thermo Fisher Scientific Inc.) were used.
The conditions of 2-step real-time RT-PCR were as follows.
The expression level of CD19 or CD20 relative to that of glyceraldehyde-3-phosphate dehydrogenase (GAPDH) was converted to a numerical value and the value was further adjusted to make the average expression of CD19 or CD20 of the non-infection group 1. […]

[2] = system: Helicobacter suis TKY strain; assay: Gastric MALT lymphoma model: number of Helicobacter suis bacteria in the stomach 6 months after infection; format: in vivo, C57BL/6 female mouse; conditions: 200 μM in water
Procedure: as §1
The measurement of the number of Helicobacter suis bacteria in the stomach of the infected mouse was performed in the same manner as in Example 5. The relative value of the number of bacteria in gastric mucosa when that with HYA non-administration is 1 is shown (FIG. 5-1 A, Item 1: HYA non-administration group, Item 2: HYA administration group).

Ki-67 positive cells = assay: Gastric MALT lymphoma model: Ki-67 positive cells in lymphoid follicle (immunostaining); format: in vivo, C57BL/6 female mouse; conditions: 200 μM in water; 6 months after infection with Helicobacter suis TKY strain
Procedure: as §1
Ki-67 is known as a marker for cell proliferation and cell cycle. Proliferated cells in a tumor tissue were detected by immunostaining with anti-Ki-67 antibody. A part of the stomach was fixed with 10% neutral formalin buffer to prepare a paraffin block, serial sections were cut out using a microtome and Hematoxylin Eosin (HE) staining was performed. Ki-67 (Clone SP6) rabbit monoclonal antibody (Thermo Fisher Scientific Inc.) diluted 1:300 was used as a dilution antibody, Histofine Simple Stain mouse MAX-PO® (NICHIREI BIOSCIENCES INC., Code: 414341) DAB staining (DAKO Inc.) was used as a secondary antibody, and Hematoxylin was used for comparison staining. As the negative control, rabbit IgG antibody (Code No. X 0936 Lot 050 (DAKO Inc.)) was used. […]

CCCCC/C=C\CC(O)CCCCCCCCC(=O)O (stereo not drawn) [HYA, 10-hydroxy-cis-12-octadecenoic acid]
proliferation of Helicobacter pylori (colony count) [1]: suppressed proliferation
CD19 relative expression level, compared to the non-administration group (CD19 and CD20 expression): significantly suppressed
CD20 relative expression level, compared to the non-administration group (CD19 and CD20 expression): significantly suppressed
number of Helicobacter suis bacteria in gastric mucosa, compared to the non-administration group [2]: significantly suppressed
increase in the number of Ki-67 positive cells, compared to the non-administration group (Ki-67 positive cells): significantly suppressed
